Our source for the IC50 values is patent US20230210999A1, “TARGETED PROTEASE DEGRADATION (TED) PLATFORM” (EUBULUS BIOTHERAPEUTICS INC., priority 2020, published 2023).

Holding throughout (type): cell-based, human
One assay relates to Daudi cells. The assay can be described thus: Cell proliferation experiment, Daudi. The following applies: Homo sapiens, Daudi, Daudi cells; read-out: Inhibitory activity IC50 on Daudi. As for the experimental part:
(§1) Reagents: RPMI-1640 medium, McCoy's 5A medium, IMDM medium, MEM medium, L-15 medium, fetal bovine serum. Penicillin-Streptomycin double antibody, trypsin, etc., 2-mercaptoethanol, NEAA, pyruvate, etc.
(§2) The cells were cultured in conventional ways, and the cells should be passed at least 2 generations before plating. Cells at the logarithmic growth phase were collected, prepared into single cell suspensions and counted. The concentration of cells was adjusted to the desired concentration, and cells were inoculated into a 96-well cell culture plate at 100 μl per well. 100 μL of complete medium of the test compound were added to each well, set up 2 duplicate wells for each concentration, and diluted with a 5-fold gradient, and continued to culture for 72 h. All cells were subjected to IC50 test for corresponding samples. The experimental results are shown in Test Example 4.
(§3) The fluorescence intensity of each well was detected using the Alarm blue method, and IC50 was calculated.
(§4) IC50 was calculated according to the following formula:
(§5) Y=Max+(Min−Max)/[1+(X/IC50)×Slope]
(§6) wherein Min, Max and Slope represent the minimum, maximum and slope respectively.

The test system of another assay is MV4;11 cells. As to the kind of experiment: Cell proliferation experiment (Alamar blue, 72 h), MV4;11. As for the experimental part:
as §1, §2, §3, §4, §5, §6

The test system of a further assay is NCIH82 cells. As to the kind of experiment: Cell proliferation experiment, NCI-H82. The following applies: read-out: Inhibitory activity IC50 on NCI-H82. As for the experimental part: as §1, §2, §3, §4, §5, §6
[1] abbreviates: Homo sapiens, MV4-11, MV4;11 cells, read-out: Inhibitory activity IC50 on MV4;11.
The mark [2] stands for this setting: Homo sapiens, NCI-H82, NCI-H82 cells.

Where two headings read alike, the source gives them in different places.

One may read the IC50 as the midpoint of a concentration-inhibition curve.

Take `O=C1CCC(N2Cc3c(C#CCCNCCCOCCCn4cc(-c5ccc(Nc6ncc7c(n6)-c6ccc(Cl)cc6C(c6c(F)cccc6F)=NC7)cc5)nn4)cccc3C2=O)C(=O)N1` (centres unmarked) [UB-180946]: the 50% inhibitory concentration (IC50) with Daudi cells was more than 1000 nM; in the assay on MV4;11 cells (setting [1]), 100 to 1000 nM; in the assay with NCIH82 cells (setting [2]), 100 to 1000 nM.

For the compound `O=C1CCC(N2Cc3c(C#CCCOCCN[C@H]4CC[C@H](n5cc(-c6ccc(Nc7ncc8c(n7)-c7ccc(Cl)cc7C(c7c(F)cccc7F)=NC8)cc6)nn5)CC4)cccc3C2=O)C(=O)N1` (some centres unmarked) [UB-180975], the concentration for half-maximal inhibition (IC50) in the assay with Daudi cells, in the assay with MV4;11 cells (setting [1]) and in the assay on NCIH82 cells (setting [2]) was more than 1000 nM each time.

Take `O=C1CCC(N2Cc3cc(NC(=O)CCNCCCOCCCCn4cc([C@]5(Cc6cccc(Nc7nccs7)n6)CC[C@@H](Oc6cccc(Cl)c6F)CC5)nn4)ccc3C2=O)C(=O)N1` (some centres unmarked) [UB-181001]: the IC50 in the assay on Daudi cells, in the assay with MV4;11 cells (setting [1]) and with NCIH82 cells (setting [2]) was more than 1000 nM each time.

As to `CCNC(=O)C=C(Cl)c1ccc2c(c1)NC(=O)/C2=C(\Nc1ccc(CNCCOCCOCCOCCOCCC(=O)Nc2cccc3c2CN(C2CCC(=O)NC2=O)C3=O)cc1)c1ccccc1` (centres unmarked) [UB-180952], the IC50 in the assay on Daudi cells, in the assay with MV4;11 cells (setting [1]) and in the assay with NCIH82 cells (setting [2]) was more than 1000 nM in each case.

Turning to `O=C1CCC(N2Cc3cc(NC(=O)CCCCCCCNCCCn4cc(-c5ccc(Nc6ncc7c(n6)-c6ccc(Cl)cc6C(c6c(F)cccc6F)=NC7)cc5)nn4)ccc3C2=O)C(=O)N1` (centres unmarked) [UB-180982], the results for the concentration for half-maximal inhibition (IC50) in the assay with Daudi cells, with MV4;11 cells (setting [1]) and in the assay with NCIH82 cells (setting [2]) were more than 1000 nM, 100 to 1000 nM and more than 1000 nM, respectively.

As to `CC[C@@H]1C(=O)N(C)c2cnc(Nc3ccc(-c4nnc(C5CCC(NCCOCCC#Cc6cccc7c6CN(C6CCC(=O)NC6=O)C7=O)CC5)o4)cc3OC)nc2N1C1CCCC1` (some centres unmarked) [UB-180968], the IC50 with Daudi cells is 100 to 1000 nM; with MV4;11 cells (setting [1]), less than 10 nM.

In the case of `O=C1CCC(N2Cc3cc(NC(=O)CCCCCCCCCNCCn4cc([C@]5(Cc6cccc(Nc7nccs7)n6)CC[C@@H](Oc6cccc(Cl)c6F)CC5)nn4)ccc3C2=O)C(=O)N1` (some centres unmarked) [UB-180995], the IC50 with Daudi cells, in the assay on MV4;11 cells (setting [1]) and in the assay with NCIH82 cells (setting [2]) was more than 1000 nM throughout.

In the case of `O=C1CCC(N2Cc3c(NC(=O)CCOCCOCCN[C@H]4CC[C@@H](NC(=O)c5ccc(Nc6ncc7c(n6)-c6ccc(Cl)cc6C(c6c(F)cccc6F)=NC7)cc5)CC4)cccc3C2=O)C(=O)N1` (some centres unmarked) [UB-180959], the IC50 is more than 1000 nM with Daudi cells, 100 to 1000 nM with MV4;11 cells (setting [1]) and more than 1000 nM in the assay with NCIH82 cells (setting [2]).

Turning to `CCNC(=O)C#Cc1ccc2c(c1)NC(=O)/C2=C(\Nc1ccc(CNCCOCCOCCOCCOCC(=O)N[C@H](C(=O)N2C[C@H](O)C[C@H]2C(=O)NCc2ccc(-c3scnc3C)cc2)C(C)(C)C)cc1)c1ccccc1` [UB-180958], the IC50 was more than 1000 nM in the assay on Daudi cells, 100 to 1000 nM in the assay with MV4;11 cells (setting [1]) and more than 1000 nM with NCIH82 cells (setting [2]).

Turning to `O=C1CCC(N2Cc3c(NC(=O)CCCCCCCNCCCn4cc(-c5ccc(Nc6ncc7c(n6)-c6ccc(Cl)cc6C(c6c(F)cccc6F)=NC7)cc5)nn4)cccc3C2=O)C(=O)N1` (centres unmarked) [UB-180987], the IC50 in the assay with Daudi cells, with MV4;11 cells (setting [1]) and in the assay with NCIH82 cells (setting [2]) was more than 1000 nM throughout.

Turning to `O=C1CCC(N2Cc3cc(NC(=O)CNCCCOCCCCCNC(=O)[C@]4(Cc5cccc(Nc6nccs6)n5)CC[C@@H](Oc5cccc(Cl)c5F)CC4)ccc3C2=O)C(=O)N1` (some centres unmarked) [UB-181017], the half-maximal inhibitory concentration (IC50) in the assay with Daudi cells was more than 1000 nM; with MV4;11 cells (setting [1]), 100 to 1000 nM; in the assay with NCIH82 cells (setting [2]), more than 1000 nM.

As for `O=C1CCC(N2Cc3cc(NC(=O)CCOCCOCCNCCn4cc(-c5ccc(Nc6ncc7c(n6)-c6ccc(Cl)cc6C(c6c(F)cccc6F)=NC7)cc5)nn4)ccc3C2=O)C(=O)N1` (centres unmarked) [UB-181016], the IC50 is more than 1000 nM with Daudi cells, 100 to 1000 nM in the assay with MV4;11 cells (setting [1]) and more than 1000 nM in the assay with NCIH82 cells (setting [2]).

Take `O=C1CCC(N2Cc3cc(NC(=O)CCOCCOCC(O)COCCn4cc(-c5ccc(Nc6ncc7c(n6)-c6ccc(Cl)cc6C(c6c(F)cccc6F)=NC7)cc5)nn4)ccc3C2=O)C(=O)N1` (centres unmarked) [UB-181005]: the 50% inhibitory concentration (IC50) with Daudi cells was more than 1000 nM; with MV4;11 cells (MV4;11 cells, read-out: Inhibitory activity IC50 on MV4;11), more than 1000 nM; with NCIH82 cells (NCI-H82 cells), more than 1000 nM.

Turning to `O=C1CCC(N2Cc3cc(NC(=O)CCOCCOCCN[C@H]4CC[C@@H](NC(=O)c5ccc(Nc6ncc7c(n6)-c6ccc(Cl)cc6C(c6c(F)cccc6F)=NC7)cc5)CC4)ccc3C2=O)C(=O)N1` (some centres unmarked) [UB-180960], the results for the IC50 in the assay on Daudi cells, in the assay with MV4;11 cells (setting [1]) and in the assay with NCIH82 cells (setting [2]) were more than 1000 nM, 100 to 1000 nM and more than 1000 nM, respectively.

As to `O=C1CCC(N2Cc3cc(NC(=O)CNCCCCOCCCCNC(=O)[C@]4(Cc5cccc(Nc6nccs6)n5)CC[C@@H](Oc5cccc(Cl)c5F)CC4)ccc3C2=O)C(=O)N1` (some centres unmarked) [UB-181019], the IC50 with Daudi cells is more than 1000 nM; with MV4;11 cells (setting [1]), 100 to 1000 nM; in the assay with NCIH82 cells (setting [2]), more than 1000 nM.

`O=C1CCC(N2Cc3cc(C#CCCOCCOCCOCCNC4CCC(n5cc(-c6ccc(Nc7ncc8c(n7)-c7ccc(Cl)cc7C(c7c(F)cccc7F)=NC8)cc6)nn5)CC4)ccc3C2=O)C(=O)N1` (centres unmarked) [UB-181010]: the figures for the IC50 in the assay on Daudi cells, in the assay with MV4;11 cells (setting [1]) and in the assay with NCIH82 cells (setting [2]) were more than 1000 nM, 100 to 1000 nM and more than 1000 nM, respectively.

With `CCNC(=O)C#Cc1ccc2c(c1)NC(=O)/C2=C(\Nc1ccc(CNCCOCCOCCOCCOCCC(=O)N[C@H](C(=O)N2C[C@H](O)C[C@H]2C(=O)NCc2ccc(-c3scnc3C)cc2)C(C)(C)C)cc1)c1ccccc1` [UB-180955], the figures for the IC50 in the assay with Daudi cells, with MV4;11 cells (setting [1]) and with NCIH82 cells (setting [2]) were more than 1000 nM, 100 to 1000 nM and more than 1000 nM, respectively.

In the case of `NC(=O)c1ccccc1Nc1nc(Nc2ccc(N3CCN(C(=O)NCCCCNCCC#Cc4ccc5c(c4)CN(C4CCC(=O)NC4=O)C5=O)CC3)cc2)ncc1Cl` (centres unmarked) [UB-181208], the IC50 with Daudi cells was 10 to 100 nM; with NCIH82 cells (setting [2]), 100 to 1000 nM.

For `CC[C@@H]1C(=O)N(C)c2cnc(Nc3ccc(C(=O)N[C@H]4CC[C@@H](NCCCCCC#Cc5ccc6c(c5)CN(C5CCC(=O)NC5=O)C6=O)CC4)cc3OC)nc2N1C1CCCC1` (some centres unmarked) [UB-180985], the IC50 in the assay on Daudi cells and in the assay on MV4;11 cells (setting [1]) was less than 10 nM in each case.

Consider `CC[C@@H]1C(=O)N(C)c2cnc(Nc3ccc(-c4cn(CCCOCCCNCCC#Cc5cccc6c5CN(C5CCC(=O)NC5=O)C6=O)nn4)cc3OC)nc2N1C1CCCC1` (some centres unmarked) [UB-180938], for which the IC50 with Daudi cells and in the assay on MV4;11 cells (setting [1]) was 10 to 100 nM in each case.

For `CC[C@@H]1C(=O)N(C)c2cnc(Nc3ccc(-c4cn(CCOCCOC[C@@H](N)CC#Cc5cccc6c5CN(C5CCC(=O)NC5=O)C6=O)nn4)cc3OC)nc2N1C1CCCC1` (some centres unmarked) [UB-180969], the figures for the 50% inhibitory concentration (IC50) in the assay on Daudi cells and in the assay on MV4;11 cells (setting [1]) were 100 to 1000 nM and 10 to 100 nM, respectively.

As for `CC[C@@H]1C(=O)N(C)c2cnc(Nc3ccc(-c4cn([C@H]5CC[C@@H](NCCCCCC#Cc6ccc7c(c6)CN(C6CCC(=O)NC6=O)C7=O)CC5)nn4)cc3OC)nc2N1C1CCCC1` (some centres unmarked) [UB-180984], the IC50 in the assay with Daudi cells was 10 to 100 nM; in the assay on MV4;11 cells (setting [1]), less than 10 nM.

Turning to `O=C1CCC(N2Cc3c(C#CCNCCOCCOCCOCCNC(=O)[C@H]4CC[C@H](Oc5cccc(Cl)c5F)CC4Cc4cccc(Nc5nccs5)n4)cccc3C2=O)C(=O)N1` (some centres unmarked) [Compound 860], the half-maximal inhibitory concentration (IC50) with MV4;11 cells (Homo sapiens, MV4-11, 72 h, MV4;11 cells, 72 h, read-out: Inhibitory activity IC50 of tested compounds on MV4;11 cells) is more than 1000 nM.

In the case of `NC(=O)c1ccccc1Nc1nc(Nc2ccc(C3CCN(C(=O)NCCCNCCCC#Cc4ccc5c(c4)CN(C4CCC(=O)NC4=O)C5=O)CC3)cc2)ncc1Cl` (centres unmarked) [UB-181207], the IC50 in the assay on Daudi cells and with NCIH82 cells (setting [2]) was more than 1000 nM throughout.

With `NC(=O)c1ccccc1Nc1nc(Nc2ccc(C3CCN(C(=O)NCCCCNCCC#Cc4ccc5c(c4)CN(C4CCC(=O)NC4=O)C5=O)CC3)cc2)ncc1Cl` (centres unmarked) [UB-181206], the half-maximal inhibitory concentration (IC50) in the assay with Daudi cells and with NCIH82 cells (setting [2]) was 100 to 1000 nM throughout.
